Reference: patent publication US11701361B2, “p110-delta inhibitors treat and prevent autoimmunity while sparing the ability to mount an immune response to exogenous immunogens” (THE REGENTS OF THE UNIVERSITY OF COLORADO, priority 2018, dated 2023)

Legend:
[1] = tested on: VH125.NOD mice; assay: T1D disease progression in VH125.NOD mice on idelalisib chow; type: in vivo, mouse; conditions: female VH125.NOD mice, vs vehicle control chow
Source text: Except where otherwise indicated, 6-16 week old mice were used in all experiments. Both male and female mice were used, but experiments were sex matched and both sexes gave identical results, with the exception of only female mice being used in the VH125.NOD experiments as female mice develop accelerated disease. hCD20-TamCre animals (Khalil, et al. Science 336: 1178-81) were intercrossed with mice carrying the rosa26-flox-STOP-YFP allele (Srinivas, et al., BMC Dev. Biol. 1:4), generating mice in which YFP is expressed in B cells upon Cre activation. These mice were crossed with Ars/A1 (Benschop, et al., Immunity 14: 33-43) transgenic mice to generate hCD20-TamCre×rosa26-flox-STOP-YFP×Ars/A1 mice. B cells from these mice will be referred to as WT Ars/A1. […]
Diet dose (DD) is calculated by multiplying the single daily dose (SD) by the body weight of a mouse (BW) and dividing that by the daily food intake (FI) [DD=(SD×BW)/FI]. […]
To test this possibility, immediately post-weaning, female VH125.NOD mice were placed on vehicle control chow to allow habituation to the diet. […] Disease progression was monitored based on blood glucose levels and visible signs of disease (i.e., hunching, scruffy fur, excessive urination).

[2] = tested on: PTEN^−/+×SHIP-1^−/+ B cells; assay: adoptive transfer of autoreactive PTEN-/+ x SHIP-1-/+ Ars/A1 B cells, loss of anergy; type: in vivo, mouse; conditions: for number of autoreactive ASCs/spleen: day 14
Source text: Except where otherwise indicated, 6-16 week old mice were used in all experiments. Both male and female mice were used, but experiments were sex matched and both sexes gave identical results, with the exception of only female mice being used in the VH125.NOD experiments as female mice develop accelerated disease. hCD20-TamCre animals (Khalil, et al. Science 336: 1178-81) were intercrossed with mice carrying the rosa26-flox-STOP-YFP allele (Srinivas, et al., BMC Dev. Biol. 1:4), generating mice in which YFP is expressed in B cells upon Cre activation. These mice were crossed with Ars/A1 (Benschop, et al., Immunity 14: 33-43) transgenic mice to generate hCD20-TamCre×rosa26-flox-STOP-YFP×Ars/A1 mice. B cells from these mice will be referred to as WT Ars/A1. These mice were also crossed with SHIP-1^flox/flox mice (Karlsson, et al. J Exp Med 198: 333-40). hCD20-TamCre×rosa26-flox-STOP-YFP×Ars/A1 mice were also crossed to PTEN^flox/flox mice (Anzelon, et al., Nat Immunol 4: 287-94) and SHP-1^flox/flox mice to generate mice in which SHIP-1, PTEN and SHP-1 deletion can be induced in anergic B cells. hCD20-TamCre×rosa26-flox-STOP-YFP×PTEN^flox/flox×Ars/A1 were crossed to hCD20-TamCre×rosa26-flox-STOP-YFP×SHIP-1^flox/flox×Ars/A1 to generate hCD20-TamCre×rosa26-flox-STOP-YFPx PTEN^flox/wt×SHIP-1^flox/wt×Ars/A1 to allow for the double haploinsufficiency of both PTEN and SHIP-1 within B cells.
2 hours before adoptive transfer, C57BL/6 recipient mice received 200 rads irradiation. […] B cells from donor mice were isolated via depletion of CD43+ cells with anti-CD43-conjugated magnetic beads (MACS anti-mouse CD43; Miltenyi Biotec). Alternatively, CD4+ T cells were isolated via CD4 positive selection (MACS anti-mouse CD4 (L3T4) Miltenyi Biotec). Resultant populations were >97% pure based on flow cytometric analyses. Donor B cells were labeled with either CellTrace Violet (Molecular Probes) or CFSE (Molecular Probes) at 5 μM for 5 minutes at room temperature prior to transfer. Donor CD4 T cells were labeled with CFSE (Molecular Probes) at 5 μM for 5 minutes at room temperature prior to transfer. 1-2×10^6 donor cells in 200 μl PBS were adoptively transferred via IV injection. 24 hours post transfer, tamoxifen was administered to activate Cre. Tamoxifen (Sigma-Aldrich) was dissolved in 100% corn oil (Sigma-Aldrich) at 20 mg/ml. Recipient mice were injected IP with 100 μl (2 mg) on two consecutive days.
Diet dose (DD) is calculated by multiplying the single daily dose (SD) by the body weight of a mouse (BW) and dividing that by the daily food intake (FI) [DD=(SD×BW)/FI].
For VH125.NOD experiments animals are placed on control chow immediately after weaning.
Spleens were mechanically disrupted, single-cell suspensions were generated, and red blood cells were lysed with ammonium chloride TRIS. Cells were resuspended in PBS containing 1% FBS and incubated with indicated antibodies. For analysis of cell surface markers, antibodies against the following molecules were used: B220-PE (BioLegend), B220-BV786 (BD Biosciences), B220-BV510 (BioLegend), CD4-BV711 (BioLegend), CD8-BV421 (BioLegend), CD138-PECy7 (BioLegend), CD69-BV786 (BD Biosciences), CD86-PerCPCy5.5 (BioLegend). After cell surface staining, the cells were fixed and permeabilized with Cytofix/Cytoperm (BD) per manufacturer's instructions and stained with Dylight650-E4 anti-Ars/A1 idiotype (produced and conjugated in our laboratory) OR HEL-650 (produced and conjugated in our laboratory) and Alexa Fluor 488-anti-GFP (rabbit polyclonal; Life Technologies). Events were collected on a CyAn ADP (Dako) and subsequent analysis using FlowJo software (Tree Star).
For detection of IgM^a anti-Ars antibodies, microtiter plates were coated with 10 μg/ml Ars-BSA16 in PBS and blocked with 2 mg/ml BSA in PBS 0.05% Tween-20. For detection of IgM^a anti-HEL antibodies, microtiter plates were coated with 10 μg/ml HEL in PBS and blocked with 2 mg/ml BSA in PBS 0.05% Tween-20. […]

[3] = 0.9375 mg/kg, 3.75 mg/kg and 30 mg/kg chow, relative to vehicle control chow

## CC[C@H](Nc1ncnc2nc[nH]c12)c1nc2cccc(F)c2c(=O)n1-c1ccccc1 [idelalisib, 5-fluoro-3-phenyl-2-[(1S)-1-(7H-purin-6-ylamino)propyl]-4(3H)-quinazolinone]
[1]; 0.9375 mg/kg idelalisib chow from pre-diabetic blood glucose readings
  disease progression (blood glucose levels and visible signs of disease): significantly delayed
[1]; 0.9375 mg/kg idelalisib chow
  survival: extended
[2]; 0.9375 mg/kg and 3.75 mg/kg chow
  number of autoreactive ASCs/spleen: significantly reduced
[2]; 0.9375 mg/kg, 3.75 mg/kg and 30 mg/kg chow, day 14, relative to untreated controls
  serum autoantibody (IgM^a anti-Ars): significantly decreased
[2]; [3]
  plasmablast differentiation as measured by CD138 positivity: significantly decreased
  proliferation of transferred B cells: significantly decreased
[2]; 30 mg/kg chow
  number of autoreactive ASCs/spleen: undetected
[2]; day 14 post transfer, regardless of treatment
  total Ars/A1 idiotype+ YFP+ B cells in the spleens (recovery of transferred cells): no significant difference
